# Laboratory results taken from patent US10584121B2 (Merck Sharp & Dohme Corp., priority 2015, dated 2020).
# Test: Rat PK: plasma clearance after PO and IV dosing
# Type: in vivo
# Conditions: fasted male Wistar Han rats; IV 0.5 mg/kg or 0.05 mg/kg; 20/60/20 DMSO/PEG400/H2O
# Procedure: Experimental Procedure for Collecting Rat PK:
# Pharmacokinetic parameters were determined following PO and IV dosing at 1 mg/kg and 0.5 mg/kg or 0.05 mg/kg respectively in fasted male Wistar Han rats. Compounds were formulated for both PO and IV dosing in 20/60/20 DMSO/PEG400/H2O. Plasma samples obtained from dosed animals were acidified by adding 30 μL of 2% formic acid to 100 μL of plasma to stabilize potential acyl-glucuronide metabolites. Sample clean-up was carried out by means of a single step protein precipitation technique by adding 200 μL of acetonitrile to 50 μL aliquots of individual subject samples. Samples were mixed by vortex for homogeneity and then subjected to centrifugation at 3500 rpm for 10 min. The supernatant (200 μL) was collected and an aliquot was injected into the LC-MS/MS for analysis. Pharmacokinetic parameters were calculated using established non-compartmental methods. The area under the plasma concentration versus time curve (AUC) was determined using the Watson software (version 7.3) or Phoenix Professional (version 6.2.1), with linear trapezoidal interpolation in the ascending slope and logarithmic trapezoidal interpolation in the descending slope. The portion of the AUC from the last measurable concentration to infinity was estimated from the equation, Ct/kel, where Ct represents the last measurable concentration and kel is the elimination rate constant. The latter was determined from the concentration versus time curve by linear regression at the terminal phase of the semi-logarithmic plot.
row,Rat plasma clearance (Clp),SMILES
1,76 mL/min/kg,"O=C(O)c1ccc(-c2nn(C(=O)c3c(Cl)cccc3C(F)(F)F)c3cccnc23)c(F)c1 [historical compound, reference compound]"

# Same assay, conditions: rat, plasma; fasted male Wistar Han rats; IV 0.5 mg/kg or 0.05 mg/kg; 20/60/20 DMSO/PEG400/H2O; read-out: Rat plasma clearance (Clp)
row,clearance,SMILES
1,5 mL/min/kg,O=C(O)c1ccc(-c2cn(C(=O)c3c(Cl)cccc3C3(C(F)F)CC3)c3cccnc23)c(F)c1 [Example 1J]
2,21 mL/min/kg,"Cc1cccc(C2(C(F)(F)F)CC2)c1C(=O)n1nc(-c2ccc(C(=O)O)cc2F)c2ncccc21 [Example 1C, 3-fluoro-4-(1-(2-methyl-6-(1-(trifluoromethyl)cyclopropyl)benzoyl)-1H-pyrazolo[4,3-b]pyridin-3-yl)benzoic acid]"
3,5 mL/min/kg,"O=C(O)c1ccc(-c2cn(C(=O)c3c(Cl)cccc3C3(C(F)(F)F)CC3)c3cccnc23)c(F)c1 [Example 1B, 4-(1-(2-chloro-6-(1-(trifluoromethyl)cyclopropyl)benzoyl)-1H-pyrrolo[3,2-b]pyridin-3-yl)-3-fluorobenzoic acid]"
4,16 mL/min/kg,"O=C(O)c1ccc(-c2nn(C(=O)c3c(C4(C(F)F)CC4)ccc(F)c3Cl)c3cccnc23)c(F)c1 [Example 1H, 4-(1-(2-chloro-6-(1-(difluoromethyl)cyclopropyl)-3-fluorobenzoyl)-1H-pyrazolo[4,3-b]pyridin-3-yl)-3-fluorobenzoic acid]"
5,8 mL/min/kg,"O=C(O)c1ccc(-c2nn(C(=O)c3c(C4(C(F)(F)F)CC4)ccc(F)c3Cl)c3cccnc23)c(F)c1 [Example 1F, 4-(1-(2-chloro-3-fluoro-6-(1-(trifluoromethyl)cyclopropyl)benzoyl)-1H-pyrazolo[4,3-b]pyridin-3-yl)-3-fluorobenzoic acid]"
6,6 mL/min/kg,"O=C(O)c1ccc(-c2nn(C(=O)c3c(Cl)cccc3C3(C(F)(F)F)CC3)c3cccnc23)c(F)c1 [Example 1A, 4-(1-(2-chloro-6-(1-(trifluoromethyl)cyclopropyl)benzoyl)-1H-pyrazolo[4,3-b]pyridin-3-yl)-3-fluorobenzoic acid]"
7,16 mL/min/kg,"O=C(O)c1ccc(-c2nn(C(=O)c3c(Cl)cccc3C3(CF)CC3)c3cccnc23)c(F)c1 [Example 1E, 4-(1-(2-chloro-6-(1-(fluoromethyl)cyclopropyl)benzoyl)-1H-pyrazolo[4,3-b]pyridin-3-yl)-3-fluorobenzoic acid]"
8,5 mL/min/kg,"O=C(O)c1ccc(-c2nn(C(=O)c3c(C(F)F)cccc3C3(C(F)(F)F)CC3)c3cccnc23)c(F)c1 [Example 1G, 4-(1-(2-(difluoromethyl)-6-(1-(trifluoromethyl)cyclopropyl)benzoyl)-1H-pyrazolo[4,3-b]pyridin-3-yl)-3-fluorobenzoic acid]"
9,10 mL/min/kg,"O=C(O)c1ccc(-c2nn(C(=O)c3c(Cl)cccc3C3(C(F)F)CC3)c3cccnc23)c(F)c1 [Example 1D, 4-(1-(2-chloro-6-(1-(difluoromethyl)cyclopropyl)benzoyl)-1H-pyrazolo[4,3-b]pyridin-3-yl)-3-fluorobenzoic acid]"
10,18 mL/min/kg,"Cc1c(F)ccc(C2(C(F)(F)F)CC2)c1C(=O)n1nc(-c2ccc(C(=O)O)cc2F)c2ncccc21 [Example 1I, 3-fluoro-4-(1-(3-fluoro-2-methyl-6-(1-(trifluoromethyl)cyclopropyl)benzoyl)-1H-pyrazolo[4,3-b]pyridin-3-yl)benzoic acid]"
